{"source": "patent EP2127643A1", "about": "“Oral pellet composition with time-delayed release” (Bayer Schering Pharma Aktiengesellschaft, priority 2008, dated 2009)", "key": {"[1]": {"settings": "rats; paclitaxel oral 30 min after oral morin; cited from earlier work"}, "[2]": {"settings": "human; oral paclitaxel with simultaneous cyclosporin (Pgp inhibitor); cited from earlier work"}, "[3]": {"settings": "human, cited from earlier work"}, "CYP-2C9": {"target": "CYP-2C9 (Homo sapiens, UniProt P11712)", "sequence (P11712 whole entry)": "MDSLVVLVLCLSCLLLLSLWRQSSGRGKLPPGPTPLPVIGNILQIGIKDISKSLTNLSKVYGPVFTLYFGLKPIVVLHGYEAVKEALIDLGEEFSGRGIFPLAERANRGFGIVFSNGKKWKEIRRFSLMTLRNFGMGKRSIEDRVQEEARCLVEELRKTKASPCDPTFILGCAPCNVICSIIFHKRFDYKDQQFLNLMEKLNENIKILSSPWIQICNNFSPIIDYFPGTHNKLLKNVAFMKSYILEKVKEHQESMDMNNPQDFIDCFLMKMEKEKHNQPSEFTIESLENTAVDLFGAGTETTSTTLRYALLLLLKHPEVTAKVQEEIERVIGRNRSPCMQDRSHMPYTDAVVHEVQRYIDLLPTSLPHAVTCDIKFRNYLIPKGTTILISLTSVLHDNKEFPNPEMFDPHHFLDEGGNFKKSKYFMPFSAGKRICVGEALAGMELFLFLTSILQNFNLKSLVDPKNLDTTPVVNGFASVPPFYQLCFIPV", "experiment": "CYP test: inhibition of cytochrome P450 isoenzymes by excipients", "format": "biochemical"}, "CYP-3A4": {"target": "CYP-3A4 (Homo sapiens, UniProt P08684)", "sequence (P08684 whole entry)": "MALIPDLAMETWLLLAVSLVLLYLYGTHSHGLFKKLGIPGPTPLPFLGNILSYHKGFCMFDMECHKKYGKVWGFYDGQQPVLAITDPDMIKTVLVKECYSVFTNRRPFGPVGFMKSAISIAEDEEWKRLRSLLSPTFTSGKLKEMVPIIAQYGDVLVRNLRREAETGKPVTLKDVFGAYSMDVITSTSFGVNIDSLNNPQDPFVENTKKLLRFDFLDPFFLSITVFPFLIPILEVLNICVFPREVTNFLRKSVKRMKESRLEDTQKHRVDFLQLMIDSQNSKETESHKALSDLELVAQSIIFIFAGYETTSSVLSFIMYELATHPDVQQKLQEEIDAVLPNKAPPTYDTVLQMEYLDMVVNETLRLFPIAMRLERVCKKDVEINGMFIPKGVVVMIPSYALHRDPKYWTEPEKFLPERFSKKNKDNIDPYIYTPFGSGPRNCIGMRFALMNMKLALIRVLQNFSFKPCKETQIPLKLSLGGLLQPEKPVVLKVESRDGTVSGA", "experiment": "CYP test: inhibition of cytochrome P450 isoenzymes by excipients", "format": "biochemical"}, "CYP-2C19": {"target": "CYP-2C19 (Homo sapiens, UniProt P33261)", "sequence (P33261 whole entry)": "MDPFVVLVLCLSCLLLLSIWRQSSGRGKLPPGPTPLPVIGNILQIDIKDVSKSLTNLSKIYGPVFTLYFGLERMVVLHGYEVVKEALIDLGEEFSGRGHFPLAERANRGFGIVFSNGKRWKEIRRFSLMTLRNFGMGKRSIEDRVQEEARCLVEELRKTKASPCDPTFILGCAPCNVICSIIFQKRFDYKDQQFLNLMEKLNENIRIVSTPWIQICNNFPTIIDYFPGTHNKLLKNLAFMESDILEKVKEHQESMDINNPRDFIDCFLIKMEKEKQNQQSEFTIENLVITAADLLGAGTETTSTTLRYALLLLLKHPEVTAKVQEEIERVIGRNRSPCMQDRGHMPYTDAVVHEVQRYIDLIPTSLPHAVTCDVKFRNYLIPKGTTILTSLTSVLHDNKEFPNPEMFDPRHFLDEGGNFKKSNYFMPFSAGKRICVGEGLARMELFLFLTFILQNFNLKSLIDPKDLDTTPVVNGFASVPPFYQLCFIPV", "experiment": "CYP test: inhibition of cytochrome P450 isoenzymes by excipients", "format": "biochemical"}, "[4]": {"settings": "concentration of excipient at which 50 % of the isoenzyme is inhibited"}}, "note": "Where two headings read alike, the source gives them in different places.", "data": [{"compound": "CC(=O)O[C@H]1C(=O)[C@@]2(C)[C@H]([C@H](OC(=O)c3ccccc3)[C@]3(O)C[C@H](OC(=O)[C@H](O)[C@@H](NC(=O)c4ccccc4)c4ccccc4)C(C)=C1C3(C)C)[C@]1(OC(C)=O)CO[C@@H]1C[C@@H]2O", "note": "[Paclitaxel]", "values": [{"measurement": "Erhöhung der AUC", "setting": "[1]", "value": "≤ 70", "unit": "%"}, {"measurement": "Bioverfügbarkeit erhöht um Faktor", "setting": "[2]", "value": 9}]}, {"compound": "C#C[C@]1(O)CC[C@H]2[C@@H]3CCc4cc(O)ccc4[C@H]3CC[C@@]21C", "note": "[Ethinylestradiol]", "values": [{"measurement": "Anteil des beobachteten First-Pass-Effekts durch direkte Konjugation (vor allem Sulfatierung in der Darmwand)", "setting": "[3]; gut wall", "value": 65, "unit": "%"}, {"measurement": "humane absolute Bioverfügbarkeit", "setting": "[3]; oral", "value": "~45", "unit": "%"}]}, {"compound": "CCCCCCCC/C=C\\CCCCCCCC(=O)OCC", "note": "[Ethyloleat]", "values": [{"measurement": "IC50", "setting": "CYP-2C9", "value": 0.628, "unit": "mM"}, {"measurement": "IC50", "setting": "CYP-3A4", "value": 0.377, "unit": "mM"}, {"measurement": "IC50", "setting": "CYP-2C19", "value": 1.05, "unit": "mM"}]}, {"compound": "Glycerolmonocaprylat [Imwitor®308]", "values": [{"measurement": "IC50, µg/ml CYP-2C9", "setting": "CYP-2C9; [4]", "value": "5,0 µg/ml"}, {"measurement": "IC50, µg/ml CYP-3A4", "setting": "CYP-3A4; [4]", "value": 29, "unit": "µg/mL"}, {"measurement": "IC50, µg/ml CYP-2C19", "setting": "CYP-2C19; [4]", "value": "6,9 µg/ml"}]}, {"compound": "CCOCCOCCO", "note": "[Transcutol®P, Ethoxydiglycol]", "values": [{"measurement": "IC50", "setting": "CYP-2C9; concentration of excipient at which 50 % of the isoenzyme is inhibited, read-out: IC50, µg/ml CYP-2C9 (converted)", "value": 11.2, "unit": "mM"}, {"measurement": "IC50", "setting": "CYP-3A4; concentration of excipient at which 50 % of the isoenzyme is inhibited, read-out: IC50, µg/ml CYP-3A4 (converted)", "value": 5.63, "unit": "mM"}, {"measurement": "IC50", "setting": "CYP-2C19; concentration of excipient at which 50 % of the isoenzyme is inhibited, read-out: IC50, µg/ml CYP-2C19 (converted)", "value": 10.4, "unit": "mM"}]}]}
